The source of these data is patent US3958011A, “Compositions of tri-n-propylacetic acid and salts thereof and treatment of neurological disorders with such compositions” (priority 1972, dated 1976).

One data set deals with rats. Nature of the data set: Anoxic seizure induced by gallamine triiodoethylate (antianoxic properties). Format: in vivo, rats (OFA). To be noted: 2 millimols/kg. An excerpt: The injection of a sufficient dose of a synthetic curariform substance such as gallamine triiodoethylate provokes in the rat paralysis of the diaphragm. The animal then dies by asphyxia.
Male rats of the OFA strain and weighing about 250 g. were first anesthetized with ether in order to enable tracheotomy to be performed and cortical electrodes to be inserted. Each rat was then maintained under conditions of artificial respiration by means of an appropriate apparatus and a paralysing dose of gallamine triiodoethylate was administered by intraperitoneal route to eliminate spontaneous breathing. The electrocorticogram, the electrocardiogram and the rectal temperature were registered. After a period of 30 minutes during which stabilization of the registrations was obtained the animal was treated with 2 millimols/kg of an oily solution of tri-n-propylacetic acid or an aqueous solution of one of its alkali metal salts. The artificial respiratory apparatus was stopped 5 minutes after treatment and note was taken of the cardiac frequency every 10 seconds as well as of the period of time between the stopping of the apparatus and the appearance of the flat tracing on the electrocorticogram. This period of time represents the period of survival of the animal. The value of the cardiac frequency corresponding to moment of appearance of the flat tracing was calculated by extrapolation.
The same test was performed on control animals but without administration of a compound of the invention.

The subject of a further data set is mice. Put plainly: Hole-board test (tranquillizing properties). Format: in vivo, mice (OF 1). To be noted: for Total number of holes explored: batch of 10. How it is done:
This test enables a quantitative evaluation to be made of the exploring capabilities of mice in relation to their curiosity. The material comprises a board 40 cm × 40 cm and 1.7 cm thick in which 16 holes, 3 cm in diameter, have been cut. The board is placed upon four legs sufficiently high (1.5 m) for the holes to appear bottomless to the animals. The experiment is carried out in as great a silence as possible.
The test was performed on batches of 10 male OF 1 mice weighing about 23 g. The animals of each batch were given an intraperitoneal dose of the compound to be tested so that each batch received a higher dose than the preceding batch. […] Thirty minutes after administration, each batch was placed in the middle of the board and the total number of holes explored by each batch was noted every minute for 5 minutes.

Data set [1] in a line: Rota rod test (neurotoxicity). It is filed as in vivo. Particulars: mouse, ip, mice, intraperitoneal, 30 min after administration, read-out: NTD50 (neurotoxic dose 50) in the rota rod test. The protocol:
The test used was that known as the rota rod test (BOISSIER-Therapie 1958, XIII, pp. 1074-1118). This test aims at enabling the animals' ability to coordinate their movements to be evaluated. It is carried out on batches of 10 mice each weighing about 25 g. The compound to be tested is administered by intraperitoneal route to the animals of each batch so that each batch receives a higher dose than that given to the preceding batch. Thirty minutes after administration, the mice are placed for two minutes on a wooden roller of 4.8 cm diameter which turns at the rate of 4 revolutions per minute. The roller has a rough surface to prevent the animals from slipping.
By this means, the neurotoxic dose 50 (NTD 50) can be determined, i.e. the dose of the compound with which one half of the animals can no longer stay on the roller during the period of time fixed as the reference period.
In order to obtain an activity index figure 30 minutes after administration the rota rod test described above was also performed using for comparison a known myorelaxant, namely mephenesin.

`CCCC(CCC)(CCC)C(=O)[O-].[Na+]` [Sodium tri-n-propylacetate, sodium tri-n-propylacetate]: the “Increase of period of survival versus controls” value in the data set with rats was 19%. Besides, in the data set with rats (controls 74.3 ± 2.3), the Period of survival was 87.9 ± 3.7 s. In addition, in the data set with rats (controls 150, calculated by extrapolation), the “Cardiac frequency when the flat tracing appears” value is reported as 109. The “Total number of holes explored” value in the data set with mice (50 mg/kg i.p., 1 min.) stood at 15; in the data set with mice (50 mg/kg i.p., 2 min.) it was 13; with mice (50 mg/kg i.p., 3 min.) it was 14; with mice (50 mg/kg i.p., 4 min.), 19; in the data set on mice (50 mg/kg i.p., 5 min.), 17; in the data set with mice (75 mg/kg i.p., 1 min.), 2. For the same compound, the “Total number of holes explored” value is 6 in the data set on mice (75 mg/kg i.p., 2 min.); 3 with mice (75 mg/kg i.p., 3 min.); 1 in the data set on mice (75 mg/kg i.p., 4 min.); 7 in the data set with mice (75 mg/kg i.p., 5 min.). Further, the “Effect on the animals' curiosity” value with mice (hole-board test, in words) is listed as “tends to reduce the animals' curiosity”. Further, the TD50 at 0.5 h in data set [1] is 120 mg/kg.
